Test results from patent US20090069370A1, “AZACYCLYLISOQUINOLINONE AND ISOINDOLINONE DERIVATIVES AS HISTAMINE-3 ANTAGONISTS” (Wyeth, priority 2007, published 2009).
Where a name gives a salt, the structure may show the parent alone.

molecular target: T1, Human Histamine H3 Receptor (Homo sapiens, UniProt Q9Y5N1); test: Methyl histamine binding in human histamine H3 receptor cell line; conditions: membranes of stably transfected HEK293T cells; radioligand 1 nM; Ki from IC50 by Cheng-Prusoff
T1 construct: expressed in transfected cells; host or cells: HEK293T cells, stably transfected; membrane preparation
Procedure: Evaluation of Methyl Histamine Binding in Human Histamine H3 Receptor Cell Line
The affinity of test compounds for the histamine 3 (H3) receptor is evaluated in the following manner. Stably transfected HEK293T cells are grown in DMEM containing 10% heat inactivated FBS and G-418 (500 ug/ml). Cells are scraped from the plate, transferred to centrifuge tubes, washed one time in PBS by centrifugation in a Sorvall RT7 Plus centrifuge (2000 rpm 10 minutes, 4° C.). The resulting pellets are stored at −80° C. until ready for use. Cells are re-suspended in buffer (50 mM Tris pH=7.5) and placed in a Dounce homogenizer, douncing ten times to homogenize cells. The homogenate is spun down by centrifugation (Sorvall RT7 Plus, 1800 rpm 10 minutes, 4° C.). The supernatant is placed in a Corex tube and spun down by centrifugation (Sorvall RC 5c Plus, 17,000 rpm 20 minutes, 4° C.). The pellet is resuspended in buffer (50 mM Tris, pH 7.5). Protein concentration (ug/ul) is determined using the Micro-BCA Protein Determination. The binding assay is set up in a 96 well microtiter plate in a total volume of 250 uL. Non-specific binding is determined in the presence of 10 uM clobenpropit. The final radioligand concentration is 1 nM. The test compound is serially diluted using the Beckman Biomek2000 to a final approximate range of 100 uM to 100 pM. Membranes are suspended in buffer, homogenized in 2 bursts of ten seconds using a Vitris mechanical homogenizer set at power setting 5. Ten μg of membranes are added to each well. Following a one hour incubation at 30° C., the reaction is terminated by the addition of ice cold buffer and rapid filtration with a Packard Filtermate Harvester through a GF/B filter pre-soaked with 1% PEI for one hour. The plate is dried for one hour at 37° C. and 60 μL Microscint Scintillant is added to each well. The CPM per well is measured on a Packard Top Count NXT. Ki values are determined in nM. The Ki is calculated from the IC50 (i.e. the concentration of competing ligand which displaces 50% of the specific binding of the radioligand). CPM values are expressed as % specific binding and plotted vs compound concentration. A curve is fitted using a four-parameter logistic fit and the IC50 value is determined. The Ki is calculated from this using the Cheng-Prusoff equation: […]=IC50/1+(L/Kd) where L=concentration of free radioligand used in the assay, and Kd is the dissociation constant of the radioligand for the receptor. L is determined for each experiment by counting an aliquot of the diluted radioligand (corresponding to that added to each well) and the Kd has previously been determined under identical conditions for this cell line/radioligand.

T1 sequence (Q9Y5N1 whole entry): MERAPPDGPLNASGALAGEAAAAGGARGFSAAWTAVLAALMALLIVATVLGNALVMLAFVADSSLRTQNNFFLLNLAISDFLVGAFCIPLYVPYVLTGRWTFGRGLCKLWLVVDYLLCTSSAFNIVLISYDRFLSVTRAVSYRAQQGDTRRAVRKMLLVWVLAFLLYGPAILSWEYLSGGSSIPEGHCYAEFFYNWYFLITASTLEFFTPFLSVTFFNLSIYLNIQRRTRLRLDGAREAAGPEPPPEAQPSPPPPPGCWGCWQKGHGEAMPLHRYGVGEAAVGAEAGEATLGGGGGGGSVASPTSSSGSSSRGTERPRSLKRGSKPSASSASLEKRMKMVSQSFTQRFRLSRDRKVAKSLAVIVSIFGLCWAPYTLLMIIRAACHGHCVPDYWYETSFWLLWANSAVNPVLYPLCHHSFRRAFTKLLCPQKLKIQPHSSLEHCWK

Ki	Structure (SMILES)
10.1 to 25 nM	CCNC(=O)c1ccc(Oc2ccc3c(c2)CCN([C@@H]2CCN(C4CCCC4)C2)C3=O)cc1 [Example 38, 4-({2-[(3R)-1-cyclopentylpyrrolidin-3-yl]-1-oxo-1,2,3,4-tetrahydroisoquinolin-6-yl}oxy)-N-ethylbenzamide]
≤ 10 nM	CCNC(=O)c1ccc(-c2ccc3c(c2)CCN([C@@H]2CCN(C4CCC4)C2)C3=O)c(F)c1 [Example 77, 4-{2-[(3R)-1-cyclobutylpyrrolidin-3-yl]-1-oxo-1,2,3,4-tetrahydroisoquinolin-6-yl}-N-ethyl-3-fluorobenzamide]
10.1 to 25 nM	CN(C)C(=O)c1ccc(Oc2ccc3c(c2)CCN(C2CCN(C4CCC4)CC2)C3=O)cc1 [Example 10, 4-{[2-(1-Cyclobutylpiperidin-4-yl)-1-oxo-1,2,3,4-tetrahydroisoquinolin-6-yl]oxy}-N,N-dimethylbenzamide]
≤ 10 nM	O=C(NC1CC1)c1ccc(-c2ccc3c(c2)CCN([C@@H]2CCN(C4CCC4)C2)C3=O)c(F)c1 [Example 81, 4-{2-[(3R)-1-cyclobutylpyrrolidin-3-yl]-1-oxo-1,2,3,4-tetrahydroisoquinolin-6-yl}-N-cyclopropyl-3-fluorobenzamide]
> 100 nM	N#Cc1ccc(-c2ccc3c(c2)CN(C2CCNCC2)C3=O)cc1 [Example 22, 4-(1-oxo-2-piperidin-4-yl-2,3-dihydro-1H-isoindol-5-yl)benzonitrile hydrochloride]
≤ 10 nM	NC(=O)c1ccc(COc2ccc3c(c2)CCN(C2CCN(C4CCC4)CC2)C3=O)cc1 [Example 15, 4-({[2-(1-cyclobutylpiperidin-4-yl)-1-oxo-1,2,3,4-tetrahydroiso-quinolin-6-yl]oxy}methyl)benzamide acid hydrochloride]
≤ 10 nM	CCNC(=O)c1ccc(-c2ccc3c(c2)CCN([C@@H]2CCN(C(C)C)C2)C3=O)c(F)c1 [Example 86, N-ethyl-3-fluoro-4-{2-[(3R)-1-isopropylpyrrolidin-3-yl]-1-oxo-1,2,3,4-tetrahydroisoquinolin-6-yl}benzamide]
≤ 10 nM	O=C(c1ccc(-c2ccc3c(c2)CCN([C@@H]2CCN(C4CCC4)C2)C3=O)cc1)N1CCCC1 [Example 47, 2-[(3R)-1-cyclobutylpyrrolidin-3-yl]-6-[4-(pyrrolidin-1-ylcarbonyl)phenyl]-3,4-dihydroisoquinolin-1(2H)-one]
≤ 10 nM	O=C(c1ccc(-c2ccc3c(c2)CCN([C@@H]2CCN(C4CCCCC4)C2)C3=O)cc1)N1CCCC1 [Example 57, 2-[(3R)-1-cyclohexylpyrrolidin-3-yl]-6-[4-(pyrrolidin-1-ylcarbonyl)phenyl]-3,4-dihydroisoquinolin-1(2H)-one]
≤ 10 nM	O=C(c1ccc(-c2ccc3c(c2)CCN([C@@H]2CCN(C4CCCC4)C2)C3=O)cc1)N1CCCC1 [Example 43, 2-[(3R)-1-cyclopentylpyrrolidin-3-yl]-6-[4-(pyrrolidin-1-ylcarbonyl)phenyl]-3,4-dihydroisoquinolin-1(2H)-one]
≤ 10 nM	CCNC(=O)c1ccc(-c2ccc3c(c2)CCN([C@@H]2CCN(C4CCC4)C2)C3=O)cc1 [Example 45, 4-{2-[(3R)-1-cyclobutylpyrrolidin-3-yl]-1-oxo-1,2,3,4-tetrahydroisoquinolin-6-yl}-N-ethylbenzamide]
≤ 10 nM	CC(C)N1CCC(N2CCc3cc(-c4ccc(C(=O)N5CCCC5)cc4)ccc3C2=O)CC1 [Example 67, 2-(1-isopropylpiperidin-4-yl)-6-[4-(pyrrolidin-1-ylcarbonyl)phenyl]-3,4-dihydroisoquinolin-1(2H)-one]
≤ 10 nM	O=C(NC1CC1)c1ccc(Oc2ccc3c(c2)CCN(C2CCN(C4CCC4)CC2)C3=O)cc1 [Example 7, 4-{[2-(1-Cyclobutylpiperidin-4-yl)-1-oxo-1,2,3,4-tetrahydroisoquinolin-6-yl]oxy}-N-cyclopropylbenzamide]
10.1 to 25 nM	O=C(c1ccc(-c2ccc3c(c2)CCN([C@@H]2CCCN(C4CCC4)C2)C3=O)cc1)N1CCCC1 [Example 70, 2-[(3R)-1-cyclobutylpiperidin-3-yl]-6-[4-(pyrrolidin-1-ylcarbonyl)phenyl]-3,4-dihydroisoquinolin-1(2H)-one]
≤ 10 nM	O=C(NC1CCCC1)c1ccc(COc2ccc3c(c2)CCN(C2CCN(C4CCC4)CC2)C3=O)cc1 [Example 21, 4-({[2-(1-Cyclobutylpiperidin-4-yl)-1-oxo-1,2,3,4-tetrahydroisoquinolin-6-yl]oxy}methyl)-N-cyclopentylbenzamide]
≤ 10 nM	CNC(=O)c1ccc(-c2ccc3c(c2)CCN([C@@H]2CCN(C4CCC4)C2)C3=O)c(F)c1 [Example 75, 4-{2-[(3R)-1-cyclobutylpyrrolidin-3-yl]-1-oxo-1,2,3,4-tetrahydroisoquinolin-6-yl}-3-fluoro-N-methylbenzamide]
> 100 nM	CCN1CCC(N2Cc3cc(-c4ccc(C#N)cc4)ccc3C2=O)CC1 [Example 24, 4-[2-(1-Ethylpiperidin-4-yl)-1-oxo-2,3-dihydro-1H-isoindol-5-yl]benzonitrile]
≤ 10 nM	CC(C)N1CC[C@@H](N2CCc3cc(-c4ccc(C(=O)N5CCCC5)cc4)ccc3C2=O)C1 [Example 56, 2-[(3R)-1-(1-methylethyl)pyrrolidin-3-yl]-6-[4-(pyrrolidin-1-ylcarbonyl)phenyl]-3,4-dihydroisoquinolin-1(2H)-one]
≤ 10 nM	O=C(c1ccc(Oc2ccc3c(c2)CCN(C2CCN(C4CCC4)CC2)C3=O)cc1)N1CCCC1 [Example 12, 2-(1-Cyclobutylpiperidin-4-yl)-6-[4-(pyrrolidin-1-ylcarbonyl)phenoxy]-3,4-dihydroisoquinolin-1(2H)-one]
≤ 10 nM	O=C(c1ccc(-c2ccc3c(c2)CCN([C@@H]2CCN(C4CCC4)C2)C3=O)cc1F)N1CCCC1 [Example 48, 2-[(3R)-1-cyclobutylpyrrolidin-3-yl]-6-[3-fluoro-4-(pyrrolidin-1-ylcarbonyl)phenyl]-3,4-dihydroisoquinolin-1(2H)-one]
10.1 to 25 nM	O=C(c1ccc(-c2ccc3c(c2)CCN([C@@H]2CCN(CC4CCCC4)C2)C3=O)cc1)N1CCCC1 [Example 59, 2-[(3R)-1-(cyclopentylmethyl)pyrrolidin-3-yl]-6-[4-(pyrrolidin-1-ylcarbonyl)phenyl]-3,4-dihydroisoquinolin-1(2H)-one]
25.1 to 50 nM	N#Cc1ccc(-c2ccc3c(c2)CN(C2CCN(C4CCCCC4)CC2)C3=O)cc1 [Example 30, 4-[2-(1-Cyclohexylpiperidin-4-yl)-1-oxo-2,3-dihydro-1H-isoindol-5-yl]benzonitrile]
≤ 10 nM	O=C(NC1CCC1)c1ccc(Oc2ccc3c(c2)CCN(C2CCN(C4CCC4)CC2)C3=O)cc1 [Example 8, N-Cyclobutyl-4-{[2-(1-cyclobutylpiperidin-4-yl)-1-oxo-1,2,3,4-tetrahydroisoquinolin-6-yl]oxy}benzamide]
≤ 10 nM	O=C(c1ccc(Oc2ccc3c(c2)CCN([C@@H]2CCN(C4CCCC4)C2)C3=O)cc1)N1CCCC1 [Example 39, 2-[(3R)-1-cyclopentylpyrrolidin-3-yl]-6-[4-(pyrrolidin-1-ylcarbonyl)phenoxy]-3,4-dihydroisoquinolin-1(2H)-one]
≤ 10 nM	O=C(c1ccc(-c2ccc3c(c2)CCN([C@@H]2CCN(CC4CC4)C2)C3=O)cc1)N1CCCC1 [Example 58, 2-[(3R)-1-(cyclopropylmethyl)pyrrolidin-3-yl]-6-[4-(pyrrolidin-1-ylcarbonyl)phenyl]-3,4-dihydroisoquinolin-1(2H)-one]
